Literature values as cited in patent US20140296830A1 (priority 2013, published 2014).

Legend:
[1] = versus mepivacaine and lidocaine
[2] = pH 4

SMILES	potency relative to mepivacaine and lidocaine [1]	solution stability [2]
CCCCN1CCCCC1C(=O)Nc1c(C)cccc1C (centres unmarked) [bupivacaine]	about 4 times	–
CSCC[C@@H]1NC(=O)[C@H](CC(C)C)NC(=O)[C@H](CCCNC(=N)N)NC(=O)[C@H](CO)NC(=O)[C@@H]2CSSC[C@@H]3NC(=O)[C@H](CO)NC(=O)CNC(=O)[C@H]([C@@H](C)O)NC(=O)[C@H](CSSC[C@H](N)C(=O)N[C@@H](CCCCN)C(=O)NCC(=O)N[C@@H](CCCCN)C(=O)NCC(=O)N[C@@H](C)C(=O)N[C@@H](CCCCN)C(=O)N2)NC(=O)[C@H](CSSC[C@@H](C(N)=O)NC(=O)[C@H](CCCCN)NC(=O)CNC(=O)[C@H](CO)NC(=O)[C@H](CCCNC(=N)N)NC3=O)NC(=O)[C@H](CC(=O)O)NC(=O)[C@H](Cc2ccc(O)cc2)NC1=O [ziconotide]	–	stable at 45 °C for weeks
